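Compound exposure: 48 hours, 5 concentrations, 96-well plates. GI50 marks 50% less growth.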 Active and inactive are the calls of the source. No stated cut-off is given here; in the data, active = GI50 up to about 1.1 µM and inactive = higher.
Experiments:
Assay in all cases: growth of human tumour cells (NCI), 48 h
A498 = tested on: A498
RPMI-8226 = tested on: RPMI-8226
786-0 = tested on: 786-0
IGROV-1 = tested on: IGROV-1
HOP-92 = tested on: HOP-92
PC-3 = tested on: PC-3
TK-10 = tested on: TK-10
M14 = tested on: M14
MDA-MB-231 = tested on: MDA-MB-231
SK-MEL-2 = tested on: SK-MEL-2
K562 = tested on: K562
RXF 393 = tested on: RXF 393
SNB-19 = tested on: SNB-19
SN12C = tested on: SN12C
MDA-MB-435 = tested on: MDA-MB-435
OVCAR-5 = tested on: OVCAR-5
HCT-15 = tested on: HCT-15
SK-MEL-28 = tested on: SK-MEL-28
UACC-257 = tested on: UACC-257
MCF7 = tested on: MCF7
BT-549 = tested on: BT-549
NCI-H522 = tested on: NCI-H522
SK-MEL-5 = tested on: SK-MEL-5
SF-539 = tested on: SF-539
HCT-116 = tested on: HCT-116
COLO 205 = tested on: COLO 205
SR = tested on: SR
SF-295 = tested on: SF-295
UACC-62 = tested on: UACC-62
HL-60 = tested on: HL-60
T47D = tested on: T47D
MOLT-4 = tested on: MOLT-4
ACHN = tested on: ACHN
Hs-578T = tested on: Hs-578T
HT-29 = tested on: HT-29
NCI-H460 = tested on: NCI-H460
NCI-H226 = tested on: NCI-H226
SW-620 = tested on: SW-620
HCC 2998 = tested on: HCC 2998
DU-145 = tested on: DU-145
OVCAR-4 = tested on: OVCAR-4
SF-268 = tested on: SF-268
SK-OV-3 = tested on: SK-OV-3
EKVX = tested on: EKVX
CAKI-1 = tested on: CAKI-1
OVCAR-3 = tested on: OVCAR-3
MDA-N = tested on: MDA-N
NCI-H23 = tested on: NCI-H23
CCRF-CEM = tested on: CCRF-CEM
A549 = tested on: A549
U-251 = tested on: U-251
UO-31 = tested on: UO-31
HOP-62 = tested on: HOP-62
LOX IMVI = tested on: LOX IMVI
Malme-3M = tested on: Malme-3M
OVCAR-8 = tested on: OVCAR-8
KM12 = tested on: KM12
NCI/ADR-RES = tested on: NCI/ADR-RES
SNB-75 = tested on: SNB-75

CSC1=C(C#N)C(=O)N(c2ccc(Cl)cc2)C(=O)C1C#N (stereo not drawn)
GI50 (A498): 74.6 µM (inactive)
GI50 (RPMI-8226): 33.8 µM (inactive)
GI50 (786-0): > 100 µM (inactive)
GI50 (IGROV-1): > 100 µM (inactive)
GI50 (HOP-92): 28.9 µM (inactive)
GI50 (PC-3): > 100 µM (inactive)
GI50 (TK-10): > 100 µM (inactive)
GI50 (M14): 96.4 µM (inactive)
GI50 (MDA-MB-231): > 100 µM (inactive)
GI50 (SK-MEL-2): > 100 µM (inactive)
GI50 (K562): 78.9 µM (inactive)
GI50 (RXF 393): > 100 µM (inactive)
GI50 (SNB-19): > 100 µM (inactive)
GI50 (SN12C): > 100 µM (inactive)
GI50 (MDA-MB-435): > 100 µM (inactive)
GI50 (OVCAR-5): > 100 µM (inactive)
GI50 (HCT-15): > 100 µM
GI50 (SK-MEL-28): > 100 µM (inactive)
GI50 (UACC-257): > 100 µM (inactive)
GI50 (MCF7): > 100 µM (inactive)
GI50 (BT-549): > 100 µM (inactive)
GI50 (NCI-H522): > 100 µM (inactive)
GI50 (SK-MEL-5): > 100 µM (inactive)
GI50 (SF-539): > 100 µM (inactive)
GI50 (HCT-116): > 100 µM (inactive)
GI50 (COLO 205): > 100 µM (inactive)
GI50 (SR): 15.4 µM (inactive)
GI50 (SF-295): 87.1 µM (inactive)
GI50 (UACC-62): > 100 µM (inactive)
GI50 (HL-60): > 100 µM (inactive)
GI50 (T47D): 74.8 µM (inactive)
GI50 (MOLT-4): 97.5 µM (inactive)
GI50 (ACHN): > 100 µM (inactive)
GI50 (Hs-578T): 77.8 µM (inactive)
GI50 (HT-29): > 100 µM (inactive)
GI50 (NCI-H460): > 100 µM (inactive)
GI50 (NCI-H226): > 100 µM (inactive)
GI50 (SW-620): > 100 µM (inactive)
GI50 (HCC 2998): > 100 µM (inactive)
GI50 (DU-145): > 100 µM (inactive)
GI50 (OVCAR-4): > 100 µM (inactive)
GI50 (SF-268): > 100 µM (inactive)
GI50 (SK-OV-3): > 100 µM (inactive)
GI50 (EKVX): > 100 µM (inactive)
GI50 (CAKI-1): > 100 µM (inactive)
GI50 (OVCAR-3): > 100 µM (inactive)
GI50 (MDA-N): > 100 µM (inactive)
GI50 (NCI-H23): > 100 µM (inactive)
GI50 (CCRF-CEM): 44.9 µM (inactive)
GI50 (A549): > 100 µM (inactive)
GI50 (U-251): > 100 µM (inactive)
GI50 (UO-31): > 100 µM (inactive)
GI50 (HOP-62): > 100 µM (inactive)
GI50 (LOX IMVI): > 100 µM (inactive)
GI50 (Malme-3M): > 100 µM (inactive)

c1ccc([P+](Cc2ccccc2C[P+](c2ccccc2)(c2ccccc2)c2ccccc2)(c2ccccc2)c2ccccc2)cc1
GI50 (A498): > 100 µM (inactive)
GI50 (RPMI-8226): 6.03 µM (inactive)
GI50 (786-0): > 100 µM (inactive)
GI50 (IGROV-1): 66.1 µM (inactive)
GI50 (PC-3): > 100 µM (inactive)
GI50 (TK-10): > 100 µM (inactive)
GI50 (OVCAR-8): > 100 µM (inactive)
GI50 (M14): > 100 µM (inactive)
GI50 (MDA-MB-231): > 100 µM (inactive)
GI50 (SK-MEL-2): > 100 µM (inactive)
GI50 (K562): 42.5 µM (inactive)
GI50 (KM12): 49.9 µM (inactive)
GI50 (RXF 393): > 100 µM (inactive)
GI50 (SNB-19): 50.6 µM (inactive)
GI50 (SN12C): > 100 µM (inactive)
GI50 (MDA-MB-435): 42.8 µM (inactive)
GI50 (OVCAR-5): > 100 µM (inactive)
GI50 (HCT-15): > 100 µM
GI50 (SK-MEL-28): > 100 µM (inactive)
GI50 (UACC-257): > 100 µM (inactive)
GI50 (MCF7): > 100 µM (inactive)
GI50 (BT-549): 65.9 µM (inactive)
GI50 (NCI/ADR-RES): > 100 µM (inactive)
GI50 (NCI-H522): > 100 µM (inactive)
GI50 (SK-MEL-5): > 100 µM (inactive)
GI50 (SF-539): > 100 µM (inactive)
GI50 (HCT-116): 29.4 µM (inactive)
GI50 (COLO 205): > 100 µM (inactive)
GI50 (SF-295): 57.8 µM (inactive)
GI50 (UACC-62): 44.2 µM (inactive)
GI50 (HL-60): 22.8 µM (inactive)
GI50 (T47D): > 100 µM (inactive)
GI50 (ACHN): > 100 µM (inactive)
GI50 (Hs-578T): > 100 µM (inactive)
GI50 (HT-29): 51.2 µM (inactive)
GI50 (NCI-H460): 38.9 µM (inactive)
GI50 (NCI-H226): > 100 µM (inactive)
GI50 (SW-620): > 100 µM (inactive)
GI50 (HCC 2998): > 100 µM (inactive)
GI50 (SNB-75): > 100 µM (inactive)
GI50 (DU-145): > 100 µM (inactive)
GI50 (SF-268): > 100 µM (inactive)
GI50 (SK-OV-3): > 100 µM (inactive)
GI50 (CAKI-1): > 100 µM (inactive)
GI50 (OVCAR-3): 86.7 µM (inactive)
GI50 (MDA-N): 30.3 µM (inactive)
GI50 (NCI-H23): 87.3 µM (inactive)
GI50 (A549): > 100 µM (inactive)
GI50 (U-251): 63.5 µM (inactive)
GI50 (UO-31): > 100 µM (inactive)
GI50 (HOP-62): > 100 µM (inactive)
GI50 (LOX IMVI): 37.6 µM (inactive)
GI50 (Malme-3M): > 100 µM (inactive)

From ChEMBL document CHEMBL1201862, “PubChem BioAssay data set” (2004)
